Experimental data reported in ChEMBL document CHEMBL1201862, “PubChem BioAssay data set” (2004).
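Five compound concentrations were applied to cells in 96-well plates for 48 hours; endpoints were derived by simple linear interpolation of the resulting dose-response curve. GI50 is the concentration that inhibits growth by half.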 Activity calls are given as the source filed them. No stated cut-off is given here; in the data, active = GI50 up to about 1.1 µM and inactive = higher.

Columns and labels:
Test in all cases: growth of human tumour cells (NCI), 48 h
K562 = test system: K562
LOX IMVI = test system: LOX IMVI
SF-295 = test system: SF-295
SK-MEL-2 = test system: SK-MEL-2
CCRF-CEM = test system: CCRF-CEM
OVCAR-3 = test system: OVCAR-3
NCI-H23 = test system: NCI-H23
SW-620 = test system: SW-620
HL-60 = test system: HL-60
NCI-H522 = test system: NCI-H522
SF-268 = test system: SF-268
786-0 = test system: 786-0
HCC 2998 = test system: HCC 2998
EKVX = test system: EKVX
OVCAR-5 = test system: OVCAR-5
OVCAR-4 = test system: OVCAR-4
SNB-19 = test system: SNB-19

Structure (SMILES)	GI50 (K562)	GI50 (LOX IMVI)	GI50 (SF-295)	GI50 (SK-MEL-2)	GI50 (CCRF-CEM)	GI50 (OVCAR-3)	GI50 (NCI-H23)	GI50 (SW-620)	GI50 (HL-60)	GI50 (NCI-H522)	GI50 (SF-268)	GI50 (786-0)	GI50 (HCC 2998)	GI50 (EKVX)	GI50 (OVCAR-5)	GI50 (OVCAR-4)	GI50 (SNB-19)
COc1ccccc1/C=C/C(=O)c1sc(-c2cccnc2)nc1C	> 100 µM (inactive)	> 100 µM (inactive)	46.5 µM (inactive)	> 100 µM (inactive)	84.3 µM (inactive)	> 100 µM (inactive)	> 100 µM (inactive)	> 100 µM (inactive)	> 100 µM (inactive)	> 100 µM (inactive)	> 100 µM (inactive)	> 100 µM (inactive)	> 100 µM (inactive)	> 100 µM (inactive)	> 100 µM (inactive)	–	–
C/C(=C1/N=C(c2cc([N+](=O)[O-])ccc2Cl)N(c2ccc(Br)cc2)C1=O)c1ccc(N(CCC#N)CCC#N)cc1C	7.78 µM (inactive)	7.5 µM (inactive)	79.3 µM (inactive)	21.8 µM (inactive)	12.3 µM (inactive)	24.5 µM (inactive)	42.7 µM (inactive)	12.7 µM (inactive)	16.2 µM (inactive)	–	61.7 µM (inactive)	29.6 µM (inactive)	32.1 µM (inactive)	> 100 µM (inactive)	50.9 µM (inactive)	38.8 µM (inactive)	19.8 µM (inactive)
CCCCCCN(N)C(=O)CC#N	39.6 µM (inactive)	72.1 µM (inactive)	–	–	> 100 µM (inactive)	79.1 µM (inactive)	65.6 µM (inactive)	> 100 µM (inactive)	–	23.9 µM (inactive)	> 100 µM (inactive)	> 100 µM (inactive)	> 100 µM (inactive)	> 100 µM (inactive)	52.2 µM (inactive)	48.4 µM (inactive)	> 10 µM (inactive)
C[N+](C)(C)CC(=O)N/N=C(/Cc1nc2ccc([N+](=O)[O-])cc2nc1O)C(=O)Nc1cc(C(F)(F)F)ccc1Cl	> 100 µM (inactive)	–	> 100 µM (inactive)	> 100 µM (inactive)	66.7 µM (inactive)	> 100 µM (inactive)	> 100 µM (inactive)	> 100 µM (inactive)	> 100 µM (inactive)	28.4 µM (inactive)	> 100 µM (inactive)	> 100 µM (inactive)	> 100 µM (inactive)	76 µM (inactive)	> 100 µM (inactive)	> 100 µM (inactive)	> 100 µM (inactive)
Cc1cc(O)c2c3c1C(=O)Oc1c(CO)c(O)c(C(=O)O)c(c1O3)C=NN=Cc1c3c(c(CO)c(O)c1C(=O)O)OC(=O)c1c(C)cc(O)c(c1O3)C=NN=C2	–	> 100 µM (inactive)	> 100 µM (inactive)	–	–	32.7 µM (inactive)	> 100 µM (inactive)	> 100 µM (inactive)	–	–	> 100 µM (inactive)	> 100 µM (inactive)	> 100 µM (inactive)	> 100 µM (inactive)	> 100 µM (inactive)	> 100 µM (inactive)	> 100 µM (inactive)
CO[C@H](c1ccccc1)[C@H](C)N(C)c1ccc2ccccc2c1C1=NC(C)(C)CO1	11.7 µM (inactive)	–	15.5 µM (inactive)	14.3 µM (inactive)	15.4 µM (inactive)	15.9 µM (inactive)	14.8 µM (inactive)	15.9 µM (inactive)	21.3 µM (inactive)	4.21 µM (inactive)	18.4 µM (inactive)	16.2 µM (inactive)	–	20.1 µM (inactive)	–	> 10 µM (inactive)	24.8 µM (inactive)
Cc1no[n+]([O-])c1/C=N/NS(=O)(=O)c1ccccc1	> 100 µM (inactive)	–	–	> 100 µM (inactive)	> 10 µM (inactive)	> 100 µM (inactive)	> 100 µM (inactive)	> 100 µM (inactive)	> 100 µM (inactive)	> 100 µM (inactive)	> 100 µM (inactive)	> 100 µM (inactive)	> 100 µM (inactive)	> 100 µM (inactive)	> 100 µM (inactive)	> 100 µM (inactive)	> 100 µM (inactive)
N#Cc1c(-c2ccc(Cl)c(Cl)c2)c(-c2ccc(Cl)c(Cl)c2)nn(CC(=O)O)c1=O	43.9 µM (inactive)	41.3 µM (inactive)	48.6 µM (inactive)	> 100 µM (inactive)	48.2 µM (inactive)	27.2 µM (inactive)	–	53.6 µM (inactive)	43.1 µM (inactive)	–	–	> 100 µM (inactive)	52.2 µM (inactive)	> 100 µM (inactive)	> 100 µM (inactive)	> 100 µM (inactive)	–
O=c1c(-c2cccc3ccccc23)c(-c2cccc3ccccc23)c1=O	0.161 µM (active)	1.77 µM (inactive)	0.446 µM (active)	2.29 µM (inactive)	0.395 µM (active)	0.577 µM (active)	2.49 µM (inactive)	0.33 µM (active)	0.721 µM (active)	0.489 µM (active)	5.47 µM (inactive)	0.535 µM (active)	0.979 µM (active)	7.67 µM (inactive)	24.7 µM (inactive)	–	1.48 µM (inactive)
COC(=O)CC(NC(=O)OCc1ccccc1)C(C(=O)OCc1ccccc1)C1(C)OCCO1 (centres undefined)	43.4 µM (inactive)	28.9 µM (inactive)	32.4 µM (inactive)	20 µM (inactive)	26.6 µM (inactive)	53.8 µM (inactive)	26.4 µM (inactive)	47.6 µM (inactive)	21.1 µM (inactive)	–	50.1 µM (inactive)	51.4 µM (inactive)	61.9 µM (inactive)	44.4 µM (inactive)	–	67.6 µM (inactive)	50 µM (inactive)
CC1=C(C(=O)Nc2cc(=O)n(C)c(=O)n2C)C(c2cccc([N+](=O)[O-])c2)C(C(=O)Nc2cc(=O)n(C)c(=O)n2C)=C(C)N1	72.4 µM (inactive)	> 100 µM (inactive)	> 100 µM (inactive)	> 100 µM (inactive)	> 100 µM (inactive)	> 100 µM (inactive)	> 100 µM (inactive)	> 100 µM (inactive)	> 100 µM (inactive)	44.5 µM (inactive)	> 100 µM (inactive)	> 100 µM (inactive)	31.5 µM (inactive)	15.9 µM (inactive)	> 100 µM (inactive)	> 100 µM (inactive)	> 100 µM (inactive)
COc1ccc([N+]2=NC(c3ccc([N+](=O)[O-])cc3)=NN(c3ccccc3)C2)cc1.[O-][Cl+3]([O-])([O-])[O-]	28.1 µM (inactive)	68.5 µM (inactive)	74.8 µM (inactive)	–	21.2 µM (inactive)	79.4 µM (inactive)	> 100 µM (inactive)	> 100 µM (inactive)	22.3 µM (inactive)	3.65 µM (inactive)	> 100 µM (inactive)	> 100 µM (inactive)	> 100 µM (inactive)	91.2 µM (inactive)	> 100 µM (inactive)	> 100 µM (inactive)	> 100 µM (inactive)
Cn1ccnc1CCc1c(Cl)cccc1Cl	> 100 µM (inactive)	> 100 µM (inactive)	> 100 µM (inactive)	> 100 µM (inactive)	> 100 µM (inactive)	> 100 µM (inactive)	> 100 µM (inactive)	> 100 µM (inactive)	> 100 µM (inactive)	> 100 µM (inactive)	> 100 µM (inactive)	> 100 µM (inactive)	–	–	> 100 µM (inactive)	> 100 µM (inactive)	–
CCOC(=O)c1c[nH]c2c(ccc3nn(C)nc32)c1=O	49.7 µM (inactive)	10 µM (inactive)	> 100 µM (inactive)	19.4 µM (inactive)	34 µM (inactive)	> 100 µM (inactive)	> 100 µM (inactive)	20.1 µM (inactive)	57.3 µM (inactive)	> 100 µM (inactive)	> 100 µM (inactive)	> 100 µM (inactive)	> 100 µM (inactive)	> 100 µM (inactive)	> 100 µM (inactive)	–	> 100 µM (inactive)
Cc1c(Cl)c2ccccc2n1S(=O)(=O)c1ccccc1	38.5 µM (inactive)	–	46.5 µM (inactive)	28.8 µM (inactive)	48.5 µM (inactive)	45 µM (inactive)	41.1 µM (inactive)	38.5 µM (inactive)	25.8 µM (inactive)	19.6 µM (inactive)	64 µM (inactive)	59.6 µM (inactive)	33.6 µM (inactive)	–	33.5 µM (inactive)	36.7 µM (inactive)	78.7 µM (inactive)
C/C(CC(=O)Nc1ccccc1C)=N/NS(=O)(=O)c1ccc(C)cc1	> 100 µM (inactive)	> 100 µM (inactive)	> 100 µM (inactive)	> 100 µM (inactive)	> 100 µM (inactive)	> 100 µM (inactive)	> 100 µM (inactive)	> 100 µM (inactive)	> 100 µM (inactive)	> 100 µM (inactive)	> 100 µM (inactive)	> 100 µM (inactive)	> 100 µM (inactive)	> 100 µM (inactive)	> 100 µM (inactive)	–	–
CCCC(C)C[C@@H](C)CC(C)/C=C(\C)c1oc(=O)c(C)c(O)c1C.CC[C@@H](C)C[C@@H](C)C[C@@H](C)/C=C(\C)c1oc(=O)c(C)c(O)c1C (some centres undefined)	–	17.1 µM (inactive)	12.8 µM (inactive)	9.48 µM (inactive)	–	6.78 µM (inactive)	10 µM (inactive)	17.7 µM (inactive)	13.6 µM (inactive)	14.8 µM (inactive)	14.1 µM (inactive)	14.5 µM (inactive)	12.9 µM (inactive)	15.2 µM (inactive)	6.19 µM (inactive)	10.4 µM (inactive)	14.2 µM (inactive)
